Data: ChEMBL document CHEMBL1201862, “PubChem BioAssay data set” (2004)
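Method: 48-hour compound exposure of cells in 96-well plates, five concentrations, linear interpolation of endpoints. At the GI50, growth is halved.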 Active and inactive are the calls of the source. Rule as the data show it: active = GI50 up to about 1.1 µM and inactive = higher.

Columns and labels:
Assay in all cases: inhibition of tumour cell growth, NCI panel, 48 h
OVCAR-8 = test system: OVCAR-8
M14 = test system: M14
MOLT-4 = test system: MOLT-4
NCI-H460 = test system: NCI-H460
U-251 = test system: U-251
OVCAR-3 = test system: OVCAR-3
DU-145 = test system: DU-145
UO-31 = test system: UO-31
SF-268 = test system: SF-268
CAKI-1 = test system: CAKI-1
NCI-H522 = test system: NCI-H522
OVCAR-5 = test system: OVCAR-5
EKVX = test system: EKVX
COLO 205 = test system: COLO 205
SNB-19 = test system: SNB-19
OVCAR-4 = test system: OVCAR-4
A549 = test system: A549
KM12 = test system: KM12
RPMI-8226 = test system: RPMI-8226
LOX IMVI = test system: LOX IMVI
HCT-116 = test system: HCT-116
NCI-H23 = test system: NCI-H23
NCI/ADR-RES = test system: NCI/ADR-RES
NCI-H226 = test system: NCI-H226
SF-539 = test system: SF-539
HOP-92 = test system: HOP-92
MDA-MB-231 = test system: MDA-MB-231
ACHN = test system: ACHN
Hs-578T = test system: Hs-578T
Malme-3M = test system: Malme-3M
PC-3 = test system: PC-3
SK-OV-3 = test system: SK-OV-3
HL-60 = test system: HL-60
786-0 = test system: 786-0
TK-10 = test system: TK-10
SN12C = test system: SN12C
SNB-75 = test system: SNB-75
SW-620 = test system: SW-620
UACC-62 = test system: UACC-62
RXF 393 = test system: RXF 393
T47D = test system: T47D
MCF7 = test system: MCF7
SK-MEL-28 = test system: SK-MEL-28
MDA-MB-435 = test system: MDA-MB-435
IGROV-1 = test system: IGROV-1
HOP-62 = test system: HOP-62
SF-295 = test system: SF-295
K562 = test system: K562
SR = test system: SR
HT-29 = test system: HT-29
BT-549 = test system: BT-549
SK-MEL-5 = test system: SK-MEL-5
HCC 2998 = test system: HCC 2998
HCT-15 = test system: HCT-15
MDA-N = test system: MDA-N
A498 = test system: A498
CCRF-CEM = test system: CCRF-CEM
SK-MEL-2 = test system: SK-MEL-2
UACC-257 = test system: UACC-257

CC(=O)OCC1OC(n2c(-c3ccc(Cl)cc3)cc(-c3ccccc3)c(C#N)c2=S)C(OC(C)=O)C(OC(C)=O)C1OC(C)=O (centres undefined)
GI50 (OVCAR-8): 10 µM (inactive) | GI50 (M14): 4.98 µM (inactive) | GI50 (MOLT-4): 12.8 µM (inactive) | GI50 (NCI-H460): 5.78 µM (inactive) | GI50 (U-251): 8.67 µM (inactive) | GI50 (OVCAR-3): 10.6 µM (inactive) | GI50 (DU-145): 15.7 µM (inactive) | GI50 (UO-31): 23.5 µM (inactive) | GI50 (SF-268): 10.8 µM (inactive) | GI50 (CAKI-1): 13.9 µM (inactive) | GI50 (NCI-H522): 18.1 µM (inactive) | GI50 (OVCAR-5): 19.6 µM (inactive) | GI50 (EKVX): 17.7 µM (inactive) | GI50 (COLO 205): 13.2 µM (inactive) | GI50 (SNB-19): 8.53 µM (inactive) | GI50 (OVCAR-4): 1.79 µM (inactive) | GI50 (A549): 14.5 µM (inactive) | GI50 (KM12): 18.5 µM (inactive) | GI50 (RPMI-8226): 8.91 µM (inactive) | GI50 (LOX IMVI): 4.29 µM (inactive) | GI50 (HCT-116): 6.11 µM (inactive) | GI50 (NCI-H23): 14.2 µM (inactive) | GI50 (NCI/ADR-RES): 6.71 µM (inactive) | GI50 (NCI-H226): 4.28 µM (inactive) | GI50 (SF-539): 3.99 µM (inactive) | GI50 (HOP-92): 19.6 µM (inactive) | GI50 (MDA-MB-231): 4.33 µM (inactive) | GI50 (ACHN): 13.5 µM (inactive) | GI50 (Hs-578T): 2.71 µM (inactive) | GI50 (Malme-3M): 2.87 µM (inactive) | GI50 (PC-3): 11.3 µM (inactive) | GI50 (SK-OV-3): 12.6 µM (inactive) | GI50 (HL-60): 3.18 µM (inactive) | GI50 (786-0): 12.2 µM (inactive) | GI50 (TK-10): 27.4 µM (inactive) | GI50 (SN12C): 11.2 µM (inactive) | GI50 (SNB-75): 8.13 µM (inactive) | GI50 (SW-620): 3.3 µM (inactive) | GI50 (UACC-62): 3.85 µM (inactive) | GI50 (RXF 393): 13.3 µM (inactive) | GI50 (T47D): 18.7 µM (inactive) | GI50 (MCF7): 17.3 µM (inactive) | GI50 (SK-MEL-28): 6.5 µM (inactive) | GI50 (MDA-MB-435): 12.7 µM (inactive) | GI50 (IGROV-1): 13.1 µM (inactive) | GI50 (HOP-62): 7.85 µM (inactive) | GI50 (SF-295): 11.5 µM (inactive) | GI50 (K562): 3.66 µM (inactive) | GI50 (SR): 10.7 µM (inactive) | GI50 (HT-29): 7.06 µM (inactive) | GI50 (BT-549): 5.01 µM (inactive) | GI50 (SK-MEL-5): 11.4 µM (inactive) | GI50 (HCC 2998): 7.14 µM (inactive) | GI50 (HCT-15): 29.9 µM | GI50 (MDA-N): 11.3 µM (inactive)

CCc1oc2ccccc2c1C(=O)c1cc(Br)c(O)c(Br)c1 [BENZBROMARONE]
GI50 (OVCAR-8): 32.7 µM (inactive) | GI50 (M14): 28.9 µM (inactive) | GI50 (MOLT-4): 26.9 µM (inactive) | GI50 (NCI-H460): 18.4 µM (inactive) | GI50 (U-251): 17.3 µM (inactive) | GI50 (OVCAR-3): 18.2 µM (inactive) | GI50 (DU-145): 43.3 µM (inactive) | GI50 (A498): 20.5 µM (inactive) | GI50 (UO-31): 21.6 µM (inactive) | GI50 (SF-268): 28.1 µM (inactive) | GI50 (CCRF-CEM): 26.4 µM (inactive) | GI50 (CAKI-1): 36.1 µM (inactive) | GI50 (NCI-H522): 19.9 µM (inactive) | GI50 (OVCAR-5): 21.4 µM (inactive) | GI50 (EKVX): 30.7 µM (inactive) | GI50 (COLO 205): 20.9 µM (inactive) | GI50 (SNB-19): 36.1 µM (inactive) | GI50 (OVCAR-4): 30 µM (inactive) | GI50 (A549): 34.8 µM (inactive) | GI50 (KM12): 20.7 µM (inactive) | GI50 (RPMI-8226): 29 µM (inactive) | GI50 (LOX IMVI): 24.7 µM (inactive) | GI50 (HCT-116): 22.4 µM (inactive) | GI50 (NCI-H23): 24.5 µM (inactive) | GI50 (NCI/ADR-RES): 31.6 µM (inactive) | GI50 (NCI-H226): 22.1 µM (inactive) | GI50 (SF-539): 17.1 µM (inactive) | GI50 (HOP-92): 24.1 µM (inactive) | GI50 (MDA-MB-231): 20.5 µM (inactive) | GI50 (ACHN): 17.5 µM (inactive) | GI50 (Hs-578T): 24.5 µM (inactive) | GI50 (Malme-3M): 19.1 µM (inactive) | GI50 (PC-3): 20 µM (inactive) | GI50 (SK-OV-3): 37.8 µM (inactive) | GI50 (HL-60): 13.6 µM (inactive) | GI50 (786-0): 29.9 µM (inactive) | GI50 (TK-10): 24.7 µM (inactive) | GI50 (SK-MEL-2): 19.8 µM (inactive) | GI50 (SN12C): 26 µM (inactive) | GI50 (SNB-75): 18.9 µM (inactive) | GI50 (SW-620): 35.6 µM (inactive) | GI50 (UACC-62): 16.9 µM (inactive) | GI50 (RXF 393): 15.3 µM (inactive) | GI50 (T47D): 19.9 µM (inactive) | GI50 (MCF7): 23.7 µM (inactive) | GI50 (SK-MEL-28): 41.4 µM (inactive) | GI50 (MDA-MB-435): 29.7 µM (inactive) | GI50 (IGROV-1): 33.7 µM (inactive) | GI50 (HOP-62): 34.3 µM (inactive) | GI50 (SF-295): 31.8 µM (inactive) | GI50 (K562): 30.9 µM (inactive) | GI50 (SR): 23.5 µM (inactive) | GI50 (HT-29): 30.3 µM (inactive) | GI50 (BT-549): 28.2 µM (inactive) | GI50 (SK-MEL-5): 17.4 µM (inactive) | GI50 (HCT-15): 27.6 µM | GI50 (UACC-257): 19.3 µM (inactive) | GI50 (MDA-N): 30.2 µM (inactive)

COC(=O)[C@H](Cc1ccccc1)NC(=O)CCCCCCC(=O)NO
GI50 (OVCAR-8): 5.28 µM (inactive) | GI50 (M14): 20.9 µM (inactive) | GI50 (MOLT-4): 2.7 µM (inactive) | GI50 (NCI-H460): 12.3 µM (inactive) | GI50 (U-251): 17.3 µM (inactive) | GI50 (OVCAR-3): 10.7 µM (inactive) | GI50 (DU-145): 7.23 µM (inactive) | GI50 (UO-31): 33.4 µM (inactive) | GI50 (SF-268): 12.3 µM (inactive) | GI50 (CCRF-CEM): 2.67 µM (inactive) | GI50 (CAKI-1): 28.3 µM (inactive) | GI50 (NCI-H522): 4.68 µM (inactive) | GI50 (OVCAR-5): 4.18 µM (inactive) | GI50 (EKVX): > 100 µM (inactive) | GI50 (COLO 205): 54.5 µM (inactive) | GI50 (SNB-19): > 100 µM (inactive) | GI50 (OVCAR-4): 39.8 µM (inactive) | GI50 (A549): 44.5 µM (inactive) | GI50 (KM12): 28.8 µM (inactive) | GI50 (RPMI-8226): 4.62 µM (inactive) | GI50 (LOX IMVI): 15.4 µM (inactive) | GI50 (HCT-116): 5.15 µM (inactive) | GI50 (NCI-H23): 26.4 µM (inactive) | GI50 (NCI/ADR-RES): 23.1 µM (inactive) | GI50 (NCI-H226): 75.3 µM (inactive) | GI50 (SF-539): 20.6 µM (inactive) | GI50 (HOP-92): 17.3 µM (inactive) | GI50 (MDA-MB-231): 21.6 µM (inactive) | GI50 (ACHN): > 100 µM (inactive) | GI50 (Hs-578T): 12.6 µM (inactive) | GI50 (Malme-3M): 2.65 µM (inactive) | GI50 (PC-3): 8.79 µM (inactive) | GI50 (SK-OV-3): 15.2 µM (inactive) | GI50 (HL-60): 6.01 µM (inactive) | GI50 (786-0): 28.6 µM (inactive) | GI50 (TK-10): 13.8 µM (inactive) | GI50 (SK-MEL-2): 4.6 µM (inactive) | GI50 (SN12C): > 100 µM (inactive) | GI50 (SW-620): 11.6 µM (inactive) | GI50 (UACC-62): 11.5 µM (inactive) | GI50 (RXF 393): 5.05 µM (inactive) | GI50 (T47D): 0.605 µM (active) | GI50 (MCF7): 46.1 µM (inactive) | GI50 (SK-MEL-28): > 100 µM (inactive) | GI50 (MDA-MB-435): 13.5 µM (inactive) | GI50 (IGROV-1): 17.7 µM (inactive) | GI50 (SF-295): 10.7 µM (inactive) | GI50 (K562): 6.53 µM (inactive) | GI50 (SR): 4.89 µM (inactive) | GI50 (HT-29): 17.6 µM (inactive) | GI50 (BT-549): > 100 µM (inactive) | GI50 (SK-MEL-5): 8.91 µM (inactive) | GI50 (HCC 2998): 16.1 µM (inactive) | GI50 (HCT-15): 56.4 µM | GI50 (UACC-257): 10.1 µM (inactive) | GI50 (MDA-N): 19 µM (inactive)
